In patent US4208514A, “4(3H)-Oxobenzo-2,1,3-thiadiazine-2,2-dioxides” (The Dow Chemical Company, priority 1976, dated 1980):

Tests used:
Type in all cases: in vivo
Velvet Leaf [1] = experiment: Selective post-emergent greenhouse test, Velvet Leaf; conditions: post-emergence, 336 h, 2 weeks
Description: (§1) So as to illustrate clearly the phytotoxic properties of the various active ingredients of the present invention, a group of controlled greenhouse experiments is described below.
(§2) Various species of plants, both broadleaf weeds and valuable crops, were planted in beds of good agricultural soil in a greenhouse. After the plants had emerged and grown to a height of about 2-6 inches, a portion of the plants were sprayed with an aqueous mixture, made by mixing a selected active ingredient and emulsifier or dispersant with water to provide solution containing 250 or 125 ppm active ingredient, employing sufficient amounts of the treating composition to provide low post emergent application rates of about 0.63 or 0.32 pounds per acre. Other portions of the plants were left untreated to serve as controls. In each test the active ingredient was a 3-methylethyl-1H-2,1,3-benzothiadiazin-4(3H)-one-2,2-dioxide having a substituent in the one position according to the invention.
(§3) After a period of 2 weeks the selective effect of the test ingredient on the plants was evaluated by a comparison with the control group of plants.

Soybean = experiment: Selective post-emergent greenhouse test, Soybean (crop injury); conditions: Glycine max, post-emergence, 336 h, 2 weeks, read-out: % Control Soybean
Description: as §1, §2, §3

Velvet Leaf [2] = experiment: General post-emergent herbicidal activity at 10 lbs/acre, Velvet Leaf; conditions: post-emergence, 336 h
Description: as §2, with “[…], […]” for “emulsifier or dispersant with water to provide solution containing 250 or 125 ppm active ingredient, employing sufficient amounts of the treating composition to provide low post emergent application rates of about 0.63 or 0.32 pounds per acre.”
as §3

Nutsedge = experiment: General post-emergent herbicidal activity at 10 lbs/acre, Nutsedge; conditions: Cyperus, post-emergence, 336 h
Description: as §2, with “[…], […]” for “emulsifier or dispersant with water to provide solution containing 250 or 125 ppm active ingredient, employing sufficient amounts of the treating composition to provide low post emergent application rates of about 0.63 or 0.32 pounds per acre.”
as §3

Pig Weed = experiment: General post-emergent herbicidal activity at 10 lbs/acre, Pig Weed; conditions: post-emergence, 336 h
Description: as §2, with “[…], […]” for “emulsifier or dispersant with water to provide solution containing 250 or 125 ppm active ingredient, employing sufficient amounts of the treating composition to provide low post emergent application rates of about 0.63 or 0.32 pounds per acre.”
as §3

Annual Morning Glory = experiment: General post-emergent herbicidal activity at 10 lbs/acre, Annual Morning Glory; conditions: Ipomoea, post-emergence, 336 h
Description: as §2, with “[…], […]” for “emulsifier or dispersant with water to provide solution containing 250 or 125 ppm active ingredient, employing sufficient amounts of the treating composition to provide low post emergent application rates of about 0.63 or 0.32 pounds per acre.”
as §3

Cotton = experiment: Selective post-emergent greenhouse test, Cotton (crop injury); conditions: Gossypium hirsutum, post-emergence, 336 h, post-emergent, 2 weeks, crop, read-out: % Control Cotton
Description: as §1, §2, §3

Jimson Weed = experiment: Selective post-emergent greenhouse test, Jimson Weed; conditions: post-emergence, 336 h, 2 weeks
Description: as §1, §2, §3

## CSC(=O)N1c2ccccc2C(=O)N(C(C)C)S1(=O)=O [COSCH3, 1H-2,1,3-Benzothiadiazin-1-carbothioic acid: 3,4-Dihydro-3-(1-methylethyl)-4-oxo-, S-methyl ester; 2,2-Dioxide]
Velvet Leaf [1]; 0.32 lbs/acre
  pest or weed control at 358.672 g/ha: 90%
Velvet Leaf [1]; 0.63 lbs/acre
  pest or weed control at 706.135 g/ha: 100%
Soybean; 0.32 lbs/acre
  plant injury at 358.672 g/ha: 0%
Soybean; 0.63 lbs/acre
  plant injury at 706.135 g/ha: 0%
Velvet Leaf [2]
  pest or weed control at 11208.5 g/ha: 100%
Nutsedge
  pest or weed control at 11208.5 g/ha: 85%
Pig Weed
  pest or weed control at 11208.5 g/ha: 100%
Annual Morning Glory
  pest or weed control at 11208.5 g/ha: 100%
Cotton; 0.32 lbs/acre
  plant injury at 358.672 g/ha: 90%
Cotton; 0.63 lbs/acre
  plant injury at 706.135 g/ha: 100%
Jimson Weed; 0.32 lbs/acre
  pest or weed control at 358.672 g/ha: 100%
Jimson Weed; 0.63 lbs/acre
  pest or weed control at 706.135 g/ha: 100%
